The subject of assay [1] is human lung mast cells. Put plainly: Histamine release assay in cultured human lung mast cells. In kind it is cell-based. The following applies: agent alone on cultured human lung mast cells. The method, then:
Release of histamine in response to various stimuli was also examined.
Mast cells (10-50×10^3/tube) in PAGCM were preincubated at 37° C. then challenged with buffer or anti-FcεRI in doubling dilutions. In experiments examining the effects of beta-agonist and purinergic agonists, agents were added to cells at 37° C. for 15 minutes prior to FcεRI-mediated challenge. Twenty minutes following challenge, cells were rapidly pelleted and supernatants removed for histamine analysis. Histamine release was expressed as the net histamine released divided by the total histamine content ×100%. The total cellular histamine content was determined following cell lysis with 2% perchloric acid. […] Histamine measurements were performed using the automated spectrofluorometric method of Technicon (Tarrytown, N.Y.). […] All assays were run in duplicates.

In assay [2] the test system is cord-blood precursor-derived mast cells. The following applies: cited from earlier work.
For assay [3], the system named is freshly isolated human lung mast cells. The following applies: cited from earlier work.
In assay [4] the test system is human lung mast cell cultures. Put plainly: Beta-receptor responsiveness: inhibition of histamine release. Type of assay: cell-based. The following applies: cultured human lung mast cells, agents added 15 minutes prior to FcεRI-mediated challenge. The method, then: Beta-receptor responsiveness of human lung mast cell cultures of the present invention were also examined using the prototype agonist, isoproterenol, as well as with the long-acting beta agonist, salmeterol.
Mast cells (10-50×10^3/tube) in PAGCM were preincubated at 37° C. then challenged with buffer or anti-FcεRI in doubling dilutions. In experiments examining the effects of beta-agonist and purinergic agonists, agents were added to cells at 37° C. for 15 minutes prior to FcεRI-mediated challenge. Twenty minutes following challenge, cells were rapidly pelleted and supernatants removed for histamine analysis. Histamine release was expressed as the net histamine released divided by the total histamine content ×100%. The total cellular histamine content was determined following cell lysis with 2% perchloric acid. Spontaneous histamine release was always <2% of cellular histamine and generally <1%. Histamine measurements were performed using the automated spectrofluorometric method of Technicon (Tarrytown, N.Y.). Variations between replicates were consistently <5%. All assays were run in duplicates.

Assay [5] has as its system human lung mast cells. Nature of the assay: Proliferation assay using 3H-thymidine uptake. In kind it is cell-based. The following applies: for effect on proliferation when added to medium containing stem cell factor and interleukin-4: added on top of stem cell factor and interleukin-4. The method, then:
Uptake of ^3H-thymidine was also monitored as a measure of survival and proliferation of human lung mast cell cultures of the present invention in the presence of different cytokine growth factors. In these experiments, ^3H-thymidine was added to human lung mast cell aliquots from three individuals at 5 through 7 weeks of culture. […] In the absence of stem cell factor, cells died within 3-5 days. Medium with stem cell factor alone produced a 60% increase in uptake. Medium to which stem cell factor and interleukin-4 were added produced a greater than 4-fold increase in proliferation versus stem cell factor alone.
At days 35-49, when cultures contained >95-99% mast cells, 2×10^4 mast cells in 50 μl culture medium were placed in triplicate in 96 well flat-bottomed plates and ^3H-thymidine (0.5 μCi/50 μl/well) added. After four days, cells were harvested on a glass fiber filter, washed ×3, and radioactive uptake was evaluated by a beta counter. Since the cultures contained virtually homogeneous populations, the counts reflected mast cell proliferation and not that of cellular contaminants. The results were expressed as the percent increase in radioactivity over mast cell cultured in medium alone.

Assay [6] concerns mast cells from CD34 positive precursor stem cells. The following applies: added to precursor-derived mast cell culture system; cited from earlier work.

Ends that are not written are not given here.

For the molecule `CNc1ccc2oc(C[C@H]3O[C@@]4(CC[C@H]3C)O[C@H]([C@H](C)C(=O)c3ccc[nH]3)[C@H](C)C[C@H]4C)nc2c1C(=O)O` [A23187], in the assay on human lung mast cells [1], the “histamine release, in words” value is recorded as “in similar fashion to freshly isolated human lung mast cells”.
Take `Nc1ncnc2c1ncn2[C@@H]1O[C@H](COP(=O)(O)OP(=O)(O)OP(=O)(O)O)[C@@H](O)[C@H]1O` [ATP]: the “histamine release, in words” value in the assay on human lung mast cells [1] is on record as “neither ATP nor UTP alone triggered appreciable histamine release”.
For the molecule `Nc1ncnc2c1ncn2[C@@H]1O[C@H](CO)[C@@H](O)[C@H]1O` [Adenosine, adenosine], the “effect on IgE-mediated histamine release” value in assay [2] was “inhibits IgE-mediated histamine release”. In addition, the “effect on anti-IgE-induced histamine release” value in assay [3] is on record as “enhancement of anti-IgE-induced release”.
Turning to `O=c1ccn([C@@H]2O[C@H](COP(=O)(O)OP(=O)(O)OP(=O)(O)O)[C@@H](O)[C@H]2O)c(=O)[nH]1` [UTP, uridine 5′ triphosphate], in the assay with human lung mast cells [1], the “histamine release, in words” value was “neither ATP nor UTP alone triggered appreciable histamine release”.
With `CC(C)NCC(O)c1ccc(O)c(O)c1` (stereo not shown) [isoproterenol], the midpoint of inhibition in assay [4], the IC50, lay at 0.09 nM.
Consider `OCc1cc(C(O)CNCCCCCCOCCCCc2ccccc2)ccc1O` (stereo not shown) [salmeterol], for which the concentration for half-maximal inhibition (IC50) – broadly, the concentration needed to halve the response being measured – in assay [4] worked out at 0.1 nM.
For the molecule “interferon-y: cytokine added to culture medium containing stem cell factor and interleukin-4”, the “effect on proliferation when added to medium containing stem cell factor and interleukin-4” value in the assay with human lung mast cells [5] is “marked reduction in proliferation”.
Regarding interleukin-9: cytokine growth factor, the “effect on proliferation when added to medium containing stem cell factor and interleukin-4” value in the assay on human lung mast cells [5] is given as “even greater enhancement in proliferation”.
Regarding “stem cell factor: cytokine growth factor added to the culture medium”, in the assay on human lung mast cells [5] (medium with stem cell factor alone, over medium alone), the “increase in 3H-thymidine uptake” value is given as 60%.
For the molecule “substance P (RPKPQQFFGLM; ends and bridges not checked; UniProt P20366 58-68, looked up)”, the “histamine release, in words” value in the assay with human lung mast cells [1] is “failed to provoke histamine release”.

B1: interleukin-4: cytokine growth factor; the cytokine that most defines allergic immunity (protein, UniProt P05112 25-153, looked up)
Interleukin-4: HKCDITLQEIIKTLNSLTEQKTLCTELTVTDIFAASKNTTEKETFCRAATVLRQFYSHHEKDTRCLGATAQQFHRHKQLIRFLKRLDRNLWGLAGLNSCPVKEANQSTLENFLERLKTIMREKYSKCSS
Consider B1, for which, in the assay on human lung mast cells [5] (interleukin-4 added in the absence of stem cell factor, 5 through 7 weeks of culture), the “proliferation (3H-thymidine uptake)” value is listed as “no proliferation in excess of that seen in culture medium alone”. Also, the “programmed cell death (apoptosis)” value in assay [6] is “induces programmed cell death (apoptosis)”.
